Patent publication US11667632B2, “2-(1H-indazol-3-yl)-3H-imidazo[4,5-C]pyridines and their anti-inflammatory uses thereof” (BioSplice Therapeutics, Inc., priority 2015, dated 2023)

What follows are compounds tested on IL-6 (assay: Inhibition of IL-6 in LPS-stimulated human monocyte cells (THP-1), HTRF). Conditions: Homo sapiens; THP-1 cells, LPS 500 ng/mL, IL-6 by HTRF.
Format: cell-based
Procedure: Human Monocyte Cell Culture: A human monocyte cell line (THP-1 cells; Catalog #TIB-202, ATCC, Manassas, Va.) was cultured in Roswell Park Memorial Institute (RPMI) 1640 Medium (Catalog #21870-100, Buffalo, N.Y.) with 1% L-glutamine, 1% HEPES, 1% sodium pyruvate, 2% sodium bicarbonate supplemented with 100 units/mL penicillin, 50 μg/mL streptomycin, 2-mercaptoethanol (0.05 mM) [basal medium] and 10% fetal bovine serum (Catalog #16140089, Life Technologies, Carlsbad, Calif.) at 37° C. and 5% CO2.
Compound Screening: THP-1 cells were cultured in basal media with 1% FBS for 24 hours before the start of the assay. Each compound of Formula (I) was dissolved in DMSO as a 10 mM stock and used to prepare compound source plates. Serial dilution (1:3, 10-point dose-response curves starting from 10 μM) and compound transfer was performed using the ECHO 550 (Labcyte, Sunnyvale, Calif.) into 384-well white low volume assay plates (Greiner Bio-One) with appropriate DMSO backfill for a final DMSO concentration of 0.1%. THP-1 cells were plated at 5000 cells/well in the 384-well plates and incubated at 37° C. for 2 h. 500 ng/mL of LPS was added after 2 hours and cells were incubated for another 22 hours at 37° C. Plates were spun in a centrifuge for 1 minute at 10,000 rpm and a mixture of anti-IL-6 XL665, and anti-IL-6 Cryptate diluted in reconstitution buffer (Cisbio Inc.) was added to each well. Following incubation for 3 hrs at room temperature, homogeneous time-resolved fluorescence (HTRF) was measured using the Envision (Perkin Elmer) at 665 nm and […]. The ratio of fluorescence at 665 nm to 620 nm was used as a readout for IL-6 quantification. All samples were processed in duplicate. Readings were normalized to DMSO treated cells and normalized activities were utilized for EC50 calculations using the dose-response log (inhibitor) vs. response -variable slope (four parameters) nonlinear regression feature available in GraphPad Prism 5.0 (or Dotmatics). For EC50 of >10 μM, the percent inhibition at 10 μM is provided.

EC50 [nM] | Structure (SMILES)
224 | CN1CCN(c2cncc3[nH]c(-c4n[nH]c5ccc(-c6cncc(NC(=O)C7CCCCC7)c6)cc45)nc23)CC1 [Compound 263]
> 10000 | c1cc(-c2cncc3[nH]c(-c4n[nH]c5ccc(-c6cncc(CN7CCCC7)c6)cc45)nc23)ccn1 [Compound 163]
14 | O=C(Nc1cncc(-c2ccc3[nH]nc(-c4nc5c(N6CCCCC6)cncc5[nH]4)c3c2)c1)C1CCC1 [Compound 217]
34 | CC(C)CC(=O)Nc1cncc(-c2ccc3[nH]nc(-c4nc5c(-c6cc(F)cc(CNS(C)(=O)=O)c6)cncc5[nH]4)c3c2)c1 [Compound 373]
45 | CC(C)CC(=O)Nc1cncc(-c2ccc3[nH]nc(-c4nc5c(-c6ccc(F)cc6)cncc5[nH]4)c3c2)c1 [Compound 12]
433 | c1cc(-c2cncc3[nH]c(-c4n[nH]c5ccc(-c6cncc(CN7CCCCC7)c6)cc45)nc23)ccn1 [Compound 164]
14 | CC(C)C(=O)Nc1cncc(-c2ccc3[nH]nc(-c4nc5c(-c6ccccc6F)cncc5[nH]4)c3c2)c1 [Compound 31]
> 10000 | O=C(Nc1cncc(-c2ccc3[nH]nc(-c4nc5ccncc5[nH]4)c3c2)c1)c1ccccc1 [Compound 275]
58 | CCCCC(=O)Nc1cncc(-c2ccc3[nH]nc(-c4nc5c(-c6ccoc6)cncc5[nH]4)c3c2)c1 [Compound 329]
47 | CN(C)c1cncc(-c2ccc3[nH]nc(-c4nc5c(-c6ccsc6)cncc5[nH]4)c3c2)c1 [Compound 295]
311 | c1ncc(-c2ccc3[nH]nc(-c4nc5c(N6CCCCC6)cncc5[nH]4)c3c2)cc1CN1CCCC1 [Compound 211]
207 | c1cncc(-c2ccc3[nH]nc(-c4nc5c(-c6ccoc6)cncc5[nH]4)c3c2)c1 [Compound 315]
59 | CCCC(=O)Nc1cncc(-c2ccc3[nH]nc(-c4nc5c(N6CCCCC6)cncc5[nH]4)c3c2)c1 [Compound 214]
44 | CN(C)Cc1cncc(-c2ccc3[nH]nc(-c4nc5c(-c6cccc(F)c6)cncc5[nH]4)c3c2)c1 [Compound 89]
16 | CCC(=O)Nc1cncc(-c2ccc3[nH]nc(-c4nc5c(-c6ccccn6)cncc5[nH]4)c3c2)c1 [Compound 174]
451 | CC(C)CC(=O)Nc1cncc(-c2ccc3[nH]nc(-c4nc5c(N6CCN(C)CC6)cncc5[nH]4)c3c2)c1 [Compound 1]
19 | O=C(Nc1cncc(-c2ccc3[nH]nc(-c4nc5c(-c6cccc(F)c6)cncc5[nH]4)c3c2)c1)C1CC1 [Compound 91]
1010 | c1cc(-c2cncc3[nH]c(-c4n[nH]c5ccc(-c6cncc(CN7CCCCC7)c6)cc45)nc23)cs1 [Compound 303]
2260 | CC(C)C(=O)Nc1cncc(-c2ccc3[nH]nc(-c4nc5ccncc5[nH]4)c3c2)c1 [Compound 9]
30 | c1ccc(-c2cncc3[nH]c(-c4n[nH]c5ccc(-c6cccnc6)cc45)nc23)nc1 [Compound 177]

EC50 [nM] | Structure (SMILES)
11 | Nc1cncc(-c2ccc3[nH]nc(-c4nc5c(-c6ccsc6)cncc5[nH]4)c3c2)c1 [Compound 291]
> 10000 | c1cc(-c2cncc3[nH]c(-c4n[nH]c5ccc(-c6cncc(CNCC7CCCC7)c6)cc45)nc23)ccn1 [Compound 173]
103 | CC(C)CC(=O)Nc1cncc(-c2ccc3[nH]nc(-c4nc5c(N6CCCCC6)cncc5[nH]4)c3c2)c1 [Compound 199]
75 | Fc1ccc(-c2cncc3[nH]c(-c4n[nH]c5ccc(-c6cncc(CN7CCCC7)c6)cc45)nc23)cc1 [Compound 107]
42 | CC(C)(C)CC(=O)Nc1cncc(-c2ccc3[nH]nc(-c4nc5c(-c6cccc(F)c6)cncc5[nH]4)c3c2)c1 [Compound 90]
474 | CN1CCN(c2cncc3[nH]c(-c4n[nH]c5ccc(-c6cncc(N)c6)cc45)nc23)CC1 [Compound 247]
827 | O=C(Nc1cncc(-c2ccc3[nH]nc(-c4nc5ccncc5[nH]4)c3c2)c1)C1CCCCC1 [Compound 286]
42 | O=C(Cc1ccccc1)Nc1cncc(-c2ccc3[nH]nc(-c4nc5c(-c6cccc(F)c6)cncc5[nH]4)c3c2)c1 [Compound 86]
14 | CC(C)CC(=O)Nc1cncc(-c2ccc3[nH]nc(-c4nc5c(-c6cccs6)cncc5[nH]4)c3c2)c1 [Compound 397]
40 | CC(C)(C)CC(=O)Nc1cncc(-c2ccc3[nH]nc(-c4nc5c(-c6ccsc6)cncc5[nH]4)c3c2)c1 [Compound 304]
58 | Cc1ccncc1-c1ccc2[nH]nc(-c3nc4c(-c5ccsc5)cncc4[nH]3)c2c1 [Compound 293]
122 | Nc1cncc(-c2ccc3[nH]nc(-c4nc5c(-c6ccc(F)cc6)cncc5[nH]4)c3c2)c1 [Compound 97]
19 | CCC(=O)Nc1cncc(-c2ccc3[nH]nc(-c4nc5c(-c6cccc(F)c6)cncc5[nH]4)c3c2)c1 [Compound 24]
109 | FC1(F)CCN(Cc2cncc(-c3ccc4[nH]nc(-c5nc6c(N7CCCCC7)cncc6[nH]5)c4c3)c2)C1 [Compound 342]
750 | CN1CCN(c2cncc3[nH]c(-c4n[nH]c5ccc(-c6cncc(NC(=O)Cc7ccccc7)c6)cc45)nc23)CC1 [Compound 252]
7240 | O=C(Nc1cncc(-c2ccc3[nH]nc(-c4nc5c(-c6ccc(F)cc6)cncc5[nH]4)c3c2)c1)c1ccccc1 [Compound 104]
97 | CN1CCN(c2cncc3[nH]c(-c4n[nH]c5ccc(-c6cncc(NC(=O)CC(C)(C)C)c6)cc45)nc23)CC1 [Compound 257]
> 10000 | O=C(Cc1ccccc1)Nc1cncc(-c2ccc3[nH]nc(-c4nc5ccncc5[nH]4)c3c2)c1 [Compound 274]
40 | Cc1ccncc1-c1ccc2[nH]nc(-c3nc4c(-c5ccc(F)cc5)cncc4[nH]3)c2c1 [Compound 99]
273 | CN(C)Cc1cncc(-c2ccc3[nH]nc(-c4nc5c(N6CCN(C)CC6)cncc5[nH]4)c3c2)c1 [Compound 3]

EC50 [nM] | Structure (SMILES)
78 | CC(C)(C)C(=O)Nc1cncc(-c2ccc3[nH]nc(-c4nc5c(-c6ccoc6)cncc5[nH]4)c3c2)c1 [Compound 319]
188 | Cc1ccncc1-c1ccc2[nH]nc(-c3nc4c(-c5ccncc5)cncc4[nH]3)c2c1 [Compound 154]
349 | CN1CCN(c2cncc3[nH]c(-c4n[nH]c5ccc(-c6cncc(N7CCOCC7)c6)cc45)nc23)CC1 [Compound 5]
71 | Fc1cccc(-c2cncc3[nH]c(-c4n[nH]c5ccc(-c6cncc(CN7CCC(F)(F)C7)c6)cc45)nc23)c1 [Compound 336]
4690 | O=C(Nc1cncc(-c2ccc3[nH]nc(-c4nc5c(-c6ccncc6)cncc5[nH]4)c3c2)c1)C1CCCC1 [Compound 170]
97 | FC1(F)CCN(Cc2cncc(-c3ccc4[nH]nc(-c5nc6c(-c7cccnc7)cncc6[nH]5)c4c3)c2)C1 [Compound 339]
47 | CC(C)Nc1cncc(-c2ccc3[nH]nc(-c4nc5c(-c6ccccc6F)cncc5[nH]4)c3c2)c1 [Compound 124]
16 | CC(C)(C)C(=O)Nc1cncc(-c2ccc3[nH]nc(-c4nc5c(N6CCCCC6)cncc5[nH]4)c3c2)c1 [Compound 205]
138 | Fc1ccccc1-c1cncc2[nH]c(-c3n[nH]c4ccc(-c5cncc(CN6CCCCC6)c5)cc34)nc12 [Compound 127]
33 | CC(C)CC(=O)Nc1cncc(-c2ccc3[nH]nc(-c4nc5c(-c6ccccc6F)cncc5[nH]4)c3c2)c1 [Compound 11]
16 | CCC(=O)Nc1cncc(-c2ccc3[nH]nc(-c4nc5c(-c6ccsc6)cncc5[nH]4)c3c2)c1 [Compound 289]
23 | Fc1cccc(-c2cncc3[nH]c(-c4n[nH]c5ccc(-c6cccnc6)cc45)nc23)c1 [Compound 15]
232 | c1cncc(-c2ccc3[nH]nc(-c4nc5c(N6CCOCC6)cncc5[nH]4)c3c2)c1 [Compound 6]
37 | FC1(F)CCN(Cc2cncc(-c3ccc4[nH]nc(-c5nc6c(-c7ccsc7)cncc6[nH]5)c4c3)c2)C1 [Compound 346]
5870 | O=C(Nc1cncc(-c2ccc3[nH]nc(-c4nc5c(-c6ccoc6)cncc5[nH]4)c3c2)c1)C1CC1 [Compound 330]
34 | CC(C)CC(=O)Nc1cncc(-c2ccc3[nH]nc(-c4nc5c(-c6cc(F)cc(NCCN(C)C)c6)cncc5[nH]4)c3c2)c1 [Compound 349]
> 10000 | O=C(Nc1cncc(-c2ccc3[nH]nc(-c4nc5ccncc5[nH]4)c3c2)c1)C1CC1 [Compound 283]
127 | CN(C)Cc1cncc(-c2ccc3[nH]nc(-c4nc5c(-c6ccsc6)cncc5[nH]4)c3c2)c1 [Compound 301]

Same assay, conditions: THP-1 cells, LPS-stimulated; dose-response starting from 10 μM

Structure (SMILES) | percent inhibition of IL-6 at 10 μM
c1cc(-c2cncc3[nH]c(-c4n[nH]c5ccc(-c6cncc(CN7CCCC7)c6)cc45)nc23)ccn1 [Compound 163] | (30.0%)
O=C(Nc1cncc(-c2ccc3[nH]nc(-c4nc5ccncc5[nH]4)c3c2)c1)c1ccccc1 [Compound 275] | (9.9%)
c1cc(-c2cncc3[nH]c(-c4n[nH]c5ccc(-c6cncc(CNCC7CCCC7)c6)cc45)nc23)ccn1 [Compound 173] | (11.7%)
O=C(Cc1ccccc1)Nc1cncc(-c2ccc3[nH]nc(-c4nc5ccncc5[nH]4)c3c2)c1 [Compound 274] | (24.1%)
O=C(Nc1cncc(-c2ccc3[nH]nc(-c4nc5ccncc5[nH]4)c3c2)c1)C1CC1 [Compound 283] | (50.7%)
